Read-outs that look alike come from different tables or passages of the source.
Key:
PDE4B2 [1] = target: T1, PDE4B2 (Homo sapiens, UniProt Q07343); assay: biochemical; conditions: for inhibition at 0.01 µM: read-out: PDE4B2 Enzyme Inhibition % @10 nM; for inhibition at 0.1 µM: read-out: PDE4B2 Enzyme Inhibition % @100 nM
Flpin-293-PDE4B2 cells [2] = target: T2, Flpin-293-PDE4B2 cells (Homo sapiens, UniProt Q07343); assay: cell-based; conditions: for inhibition at 0.01 µM: read-out: Cell Inhibition % @10 nM, 10 nM, Flpin-293-PDE4B2 cells; for inhibition at 0.1 µM: read-out: Cell Inhibition % @100 nM, 100 nM, Flpin-293-PDE4B2 cells; for inhibition at 0.001 µM: read-out: Cell Inhibition % @1 nM, 1 nM, Flpin-293-PDE4B2 cells
PDE4D2 = PDE4D2 (Homo sapiens, UniProt Q08499); assay: PDE4D2 enzyme experiment (AMP-Glo)
Flpin-293-PDE4B2 cells [3] = target: T2, Flpin-293-PDE4B2 cells; conditions: for Cell Inhibition % @1 nM: 0.001 µM; for Cell Inhibition % @10 nM: 0.01 µM; for Cell Inhibition % @100 nM: 0.1 µM; for IC50: read-out: PDE4B2 IC50 Cell, Foskolin
PDE4B2 [4] = target: T1, PDE4B2; conditions: read-out: PDE4B2 IC50; enzyme assay
[5] = read-out: PDE4D2 IC50 Binding, enzyme assay

T2 sequence (Q07343 1-564 isoform Q07343-2): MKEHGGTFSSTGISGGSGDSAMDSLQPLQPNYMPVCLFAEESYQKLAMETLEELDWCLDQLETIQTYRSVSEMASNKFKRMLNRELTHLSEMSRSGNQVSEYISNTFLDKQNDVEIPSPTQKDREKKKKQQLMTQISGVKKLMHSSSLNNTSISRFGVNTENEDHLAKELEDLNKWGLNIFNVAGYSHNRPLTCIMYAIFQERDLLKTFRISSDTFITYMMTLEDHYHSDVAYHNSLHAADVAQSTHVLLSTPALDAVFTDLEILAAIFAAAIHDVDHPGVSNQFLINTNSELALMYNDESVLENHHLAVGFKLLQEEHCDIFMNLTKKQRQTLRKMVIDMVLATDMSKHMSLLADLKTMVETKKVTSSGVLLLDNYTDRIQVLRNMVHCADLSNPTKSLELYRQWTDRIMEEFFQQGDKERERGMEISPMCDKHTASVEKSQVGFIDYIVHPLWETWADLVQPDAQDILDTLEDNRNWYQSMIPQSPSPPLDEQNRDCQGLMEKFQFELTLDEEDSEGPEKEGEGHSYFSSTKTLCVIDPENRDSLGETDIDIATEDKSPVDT
T1 sequence (Q07343 1-564 isoform Q07343-2, species assumed): as the sequence (Q07343 1-564 isoform Q07343-2) above
Sequence of PDE4D2 (Q08499 303-809 limits assumed): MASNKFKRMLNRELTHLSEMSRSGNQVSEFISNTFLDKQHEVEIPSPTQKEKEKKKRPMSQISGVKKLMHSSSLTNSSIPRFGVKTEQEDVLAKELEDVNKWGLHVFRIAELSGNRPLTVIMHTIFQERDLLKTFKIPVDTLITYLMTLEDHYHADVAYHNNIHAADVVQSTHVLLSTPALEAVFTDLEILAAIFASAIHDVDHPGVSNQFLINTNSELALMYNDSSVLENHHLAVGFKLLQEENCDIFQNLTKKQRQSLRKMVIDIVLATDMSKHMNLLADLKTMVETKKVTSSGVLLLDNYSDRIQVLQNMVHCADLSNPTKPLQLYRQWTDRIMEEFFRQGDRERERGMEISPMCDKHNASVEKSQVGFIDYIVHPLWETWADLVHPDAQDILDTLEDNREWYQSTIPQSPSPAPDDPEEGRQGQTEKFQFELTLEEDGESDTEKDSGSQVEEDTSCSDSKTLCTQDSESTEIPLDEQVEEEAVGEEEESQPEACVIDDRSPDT

SMILES | inhibition at 0.01 µM (Flpin-293-PDE4B2 cells [2]) [%] | inhibition at 0.1 µM (Flpin-293-PDE4B2 cells [2]) [%] | IC50 (PDE4D2; [5]) [pM] | IC50 (PDE4B2 [4]) [pM] | inhibition at 0.001 µM (Flpin-293-PDE4B2 cells [2]) [%] | further results
[O-][S+]1CCc2nc(N3Cc4ccc(Cl)cc4C3)nc(NC3(CO)CCC3)c21 (stereo not shown) [Compound 33] | 9 | 33.2 | – | – | – | inhibition at 0.01 µM (PDE4B2 [1]): 72.3%; inhibition at 0.1 µM (PDE4B2 [1]): 98.6%
COc1ccc2c(c1)CCN(c1nc3c(c(NC4(CO)CCC4)n1)[S+]([O-])CC3)CC2 (stereo not shown) [Compound 47] | – | – | – | – | – | inhibition at 0.01 µM (PDE4B2 [1]): 98.4%; inhibition at 0.1 µM (PDE4B2 [1]): 100%
[O-][S@+]1CCc2nc(N3CCc4c(ccc5[nH]ncc45)C3)nc(NC3(CO)CCC3)c21 [Compound 118, (R)-4-((1-(hydroxymethyl)cyclobutyl)amino)-2-(3,6,8,9-tetrahydro-7H-pyrazolo[4,3-f]isoquinolin-7-yl)-6,7-dihydrothieno[3,2-d]pyrimidine 5-oxide] | – | – | – | – | – | IC50 (PDE4B2 [1]): 414 pM; IC50 (PDE4D2): 748 pM
[O-][S+]1CCc2nc(N3CCc4ccc(Br)cc4CC3)nc(NC3(CO)CCC3)c21 (stereo not shown) [Compound 46] | 69.6 | 99 | – | – | – | inhibition at 0.01 µM (PDE4B2 [1]): 98.9%; inhibition at 0.1 µM (PDE4B2 [1]): 100%
[O-][S+]1CCc2nc(N3Cc4ccc(C(F)(F)F)cc4C3)nc(NC3(CO)CCC3)c21 (stereo not shown) [Compound 62] | 29.5 | 69.1 | – | – | – | inhibition at 0.01 µM (PDE4B2 [1]): 83.8%; inhibition at 0.1 µM (PDE4B2 [1]): 101%
O=[N+]([O-])c1ccc2c(c1)CN(c1nc3c(c(NC4(CO)CCC4)n1)[S+]([O-])CC3)C2 (stereo not shown) [Compound 61] | 17.7 | 55.2 | – | – | – | inhibition at 0.01 µM (PDE4B2 [1]): 70.9%; inhibition at 0.1 µM (PDE4B2 [1]): 98.2%
[O-][S+]1CCc2nc(N3CCc4ccsc4C3)nc(NC3(CO)CCC3)c21 (stereo not shown) [Compound 36] | 18.1 | 66.6 | – | – | – | inhibition at 0.01 µM (PDE4B2 [1]): 74.5%; inhibition at 0.1 µM (PDE4B2 [1]): 99%
C[C@H]1CCCN1c1ccc2c(c1)CCN(c1nc3c(c(NC4(CO)CCC4)n1)[S+]([O-])CC3)C2 (stereo partly shown) [Compound 134] | 86.8 | 101 | 240 | 98 | 19.2 | –
[O-][S+]1CCc2nc(N3CCc4cc(Cl)ccc4[C@H]3C3CC3)nc(NC3(CO)CCC3)c21 (stereo partly shown) [Compound 125] | 21.8 | 90.6 | 1980 | 968 | 2.85 | –
C[C@@H]1c2ccc(Cl)cc2CCN1c1nc2c(c(NC3(CO)CCC3)n1)[S@+]([O-])CC2 [Compound 29] | – | – | – | – | – | IC50 (Flpin-293-PDE4B2 cells [3]): 20900 pM
C[C@@H]1c2ccc(Br)cc2CCN1c1nc2c(c(NC3(CO)CCC3)n1)[S+]([O-])CC2 (stereo partly shown) [Compound 124] | 42.6 | 97.3 | 2920 | 980 | 8.7 | –
[O-][S+]1CCc2nc(N3CCc4sc(Br)cc4C3)nc(NC3(CO)CCC3)c21 (stereo not shown) [Compound 55] | 52.8 | 93.4 | – | – | – | inhibition at 0.01 µM (PDE4B2 [1]): 93.3%; inhibition at 0.1 µM (PDE4B2 [1]): 99.9%
Cn1nc2c(c1Cl)CN(c1nc3c(c(NC4(CO)CCC4)n1)[S+]([O-])CC3)CC2 (stereo not shown) [Compound 58] | 15.9 | 57.1 | – | – | – | inhibition at 0.01 µM (PDE4B2 [1]): 68.7%; inhibition at 0.1 µM (PDE4B2 [1]): 97.5%
CN(C)c1ccc2c(c1)CCN(c1nc3c(c(NC4(CO)CCC4)n1)[S+]([O-])CC3)C2 (stereo not shown) [Compound 126] | 77.4 | 100 | 1640 | 951 | 19.8 | –

The next lines start with results.

inhibition at 0.01 µM (Flpin-293-PDE4B2 cells [2]) [%] | inhibition at 0.1 µM (Flpin-293-PDE4B2 cells [2]) [%] | IC50 (PDE4D2; [5]) [pM] | IC50 (PDE4B2 [4]) [pM] | inhibition at 0.001 µM (Flpin-293-PDE4B2 cells [2]) [%] | SMILES | further results
– | – | 748 | 224 | – | N#CC1CCN(c2ccc3c(c2)CCN(c2nc4c(c(NC5(CO)CCC5)n2)[S+]([O-])CC4)C3)C1 (stereo not shown) [Compound 160] | Cell Inhibition % @1 nM (Flpin-293-PDE4B2 cells [3]): 15.06%; Cell Inhibition % @10 nM (Flpin-293-PDE4B2 cells [3]): 75.05%; Cell Inhibition % @100 nM (Flpin-293-PDE4B2 cells [3]): 99.84%
– | 83.1 | – | – | 8.27 | [O-][S+]1CCc2nc(N3CCc4cc(N5CCCC5C(F)(F)F)ccc4C3)nc(NC3(CO)CCC3)c21 (stereo not shown) [Compound 157] | Cell Inhibition % @10 nM (Flpin-293-PDE4B2 cells [3]): 23.21%
34.8 | 94.4 | 2270 | 837 | 6.79 | Cn1cc(CNc2nc(N3CCc4cc(Cl)ccc4C3)nc3c2[S+]([O-])CC3)cn1 (stereo not shown) [Compound 142] | –
74.4 | 99.9 | 119 | 117 | 14.7 | C[C@H]1c2ccc(N3CCCC3)cc2CCN1c1nc2c(c(NC3(CO)COC3)n1)[S+]([O-])CC2 (stereo partly shown) [Compound 200] | –
91 | 99.7 | 279 | 138 | 26.5 | [O-][S+]1CCc2nc(N3CCc4cc(N5CC6COCC6C5)ccc4C3)nc(NC3(CO)CCC3)c21 (stereo not shown) [Compound 154] | –
51.4 | 98.6 | 697 | 440 | 7.35 | [O-][S+]1CCc2nc(N3CCc4cc(N5CCOCC5)ccc4C3)nc(NC3(CO)CCC3)c21 (stereo not shown) [Compound 144] | –
72.3 | 99.9 | 596 | 194 | 7.33 | C[C@H]1c2ccc(N3CCCC3)cc2CCN1c1nc2c(c(N[C@@H]3CC[C@H]3O)n1)[S+]([O-])CC2 (stereo partly shown) [Compound 201] | –
47.1 | 96.7 | 572 | 168 | 3.93 | Cn1cc(CNc2nc(N3CCc4cc(N5CCCC5)ccc4C3)nc3c2[S+]([O-])CC3)cn1 (stereo not shown) [Compound 190] | –
89.5 | 100 | 244 | 69.3 | 23.7 | COC(=O)N1CC[C@H](Nc2nc(N3CCc4cc(N5CCCC5)ccc4C3)nc3c2[S+]([O-])CC3)C1 (stereo partly shown) [Compound 196] | –
37.3 | 96.3 | 824 | 670 | 3.1 | [O-][S+]1CCc2nc(N3CCc4cc(N5CC6C(C5)C6(F)F)ccc4C3)nc(NC3(CO)CCC3)c21 (stereo not shown) [Compound 161] | –
49.6 | 97.5 | 694 | 418 | 11.8 | [O-][S+]1CCc2nc(N3CCc4cc(N5CC[C@@H](F)C5)ccc4C3)nc(NC3(CO)CCC3)c21 (stereo partly shown) [Compound 150] | –
56.5 | 99.1 | 655 | 298 | 7.66 | CO[C@H]1CCN(c2ccc3c(c2)CCN(c2nc4c(c(NC5(CO)CCC5)n2)[S+]([O-])CC4)C3)C1 (stereo partly shown) [Compound 151] | –
73.4 | 99.6 | 389 | 224 | 16.8 | N#CC1CCN(c2ccc3c(c2)CCN(c2nc4c(c(NC5(CO)CCC5)n2)[S+]([O-])CC4)C3)C1 (stereo not shown) [Compound 159] | –
36 | 95.9 | 985 | 245 | 4.25 | [O-][S+]1CCc2nc(N3CCc4cc(N5CC6CC6C5)ccc4C3)nc(NC3(CO)CCC3)c21 (stereo not shown) [Compound 145] | –
66 | 99.2 | 748 | 426 | 16.1 | CO[C@@H]1CCN(c2ccc3c(c2)CCN(c2nc4c(c(NC5(CO)CCC5)n2)[S+]([O-])CC4)C3)C1 (stereo partly shown) [Compound 152] | –
65.7 | 99.5 | 391 | 386 | 8.43 | CC(C)(O)[C@@H]1CCN(c2ccc3c(c2)CCN(c2nc4c(c(NC5(CO)CCC5)n2)[S+]([O-])CC4)C3)C1 (stereo partly shown) [Compound 173] | –
61.6 | 98.2 | 453 | 457 | 9.23 | [O-][S+]1CCc2nc(N3CCc4cc(N5CCC6(CC5)COC6)ccc4C3)nc(NC3(CO)CCC3)c21 (stereo not shown) [Compound 166] | –
56.7 | 96.7 | 300 | 170 | 11.9 | O=S1(=O)C[C@H]2C[C@@H]1CN2c1ccc2c(c1)CCN(c1nc3c(c(NC4(CO)CCC4)n1)[S+]([O-])CC3)C2 (stereo partly shown) [Compound 163] | –
34.6 | 97.5 | 1250 | 945 | 3.24 | C[C@H]1c2ccc(N3CCCC3)cc2CCN1c1nc2c(c(NC3(CO)CCOCC3)n1)[S+]([O-])CC2 (stereo partly shown) [Compound 212] | –
– | – | 993 | 87 | – | C[C@H]1c2ccc(N3CCCC3)cc2CCN1c1nc2c(c(NC3(CO)CCC3)n1)[S+]([O-])CC2 (stereo partly shown) [Compound 167] | IC50 (Flpin-293-PDE4B2 cells [3]): 20700 pM
– | – | 653 | 273 | – | [O-][S+]1CCc2nc(N3CCc4cc(N5CCCC5C(F)(F)F)ccc4C3)nc(NC3(CO)CCC3)c21 (stereo not shown) [Compound 158] | Cell Inhibition % @1 nM (Flpin-293-PDE4B2 cells [3]): 14.79%; Cell Inhibition % @10 nM (Flpin-293-PDE4B2 cells [3]): 61.64%; Cell Inhibition % @100 nM (Flpin-293-PDE4B2 cells [3]): 99.33%

— US20260285880A1, “SUBSTITUTED DIHYDROTHIENOPYRIMIDINE COMPOUND, PREPARATION METHOD THEREFOR, AND USE THEREOF” (SHANGHAI YIDI BIOTECHNOLOGY CO., LTD., priority 2023, published 2026)
